Laboratory results reported in article PMC3139112 (Journal of molecular biology, 2011).

Target: A3G (APOBEC3G) (Homo sapiens, UniProt Q9HC16)
Assay type: biochemical
Conditions: 1 μM peptide (Fig. 3B)

A3G (APOBEC3G), sequence (Q9HC16 whole entry): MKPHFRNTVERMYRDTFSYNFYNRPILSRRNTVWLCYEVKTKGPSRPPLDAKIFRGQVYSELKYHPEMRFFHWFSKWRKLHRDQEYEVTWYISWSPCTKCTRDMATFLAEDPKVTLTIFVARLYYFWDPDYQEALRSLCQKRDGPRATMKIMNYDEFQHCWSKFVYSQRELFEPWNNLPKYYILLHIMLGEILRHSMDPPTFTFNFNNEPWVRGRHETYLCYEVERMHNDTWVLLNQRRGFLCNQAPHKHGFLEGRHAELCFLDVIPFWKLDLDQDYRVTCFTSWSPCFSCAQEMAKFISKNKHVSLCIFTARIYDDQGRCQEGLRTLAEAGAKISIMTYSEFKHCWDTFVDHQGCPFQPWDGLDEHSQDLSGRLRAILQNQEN

Row | Sequence | inhibition of A3G deaminase activity (peptide screen)
1 | DLADQLIHLYYFDCF [Vif101-115] | inhibited the A3G deaminase activity
2 | DCFSESAIRNAILGH [Vif113-127] | inhibited the A3G deaminase activity
3 | GWFYRHHYESTHPRI [Vif37-51] | inhibited the A3G deaminase activity
4 | IVWQVDRMRIRTWKS [Vif9-23] | inhibited the A3G deaminase activity
